Reference: US20100324096A1, “Whitening Agent And Skin External Preparation” (SHISEIDO COMPANY LTD., priority 2008, published 2010)
Like-named read-outs stand apart in the source and are kept apart here.

Test system: Mouse B16 melanoma cells
Experiment: Melanin production inhibition test
Assay type: cell-based
Settings: minimum non-cytotoxic concentration at which melanin amount was 80% or less; for minimal effective concentration: Mus musculus, 72 h, read-out: Inhibitory effect on melanin production
Protocol: A test for melanin production inhibition by the compounds of the formula (1) was conducted. The test method is as follows.
Melanin Production Inhibition Test
(1) Inoculation of Cells and Addition of Test Substances
Mouse B16 melanoma cells were inoculated in a six well plate at 100,000 cells/well. The next day, test substance solutions (solvent: DMSO) were added.
(2) Cell Proliferation Test
Three days after the addition of the test substance solution, the medium was removed by aspiration. Then 1 ml of EMEM medium containing 10% Alamar Blue solution was added, and a reaction was allowed to proceed at 37° C. After 30 minutes, 100 μL of the reaction mixture was transferred to a 96 well plate and fluorescence was measured at an excitation wavelength of 544 nm and a measurement wavelength of 590 nm. Using the value thus measured as a relative value of cell count, a ratio of the cell count (% cell count) of the test substance-added group to the test substance-absent group (group in which only the solvent was added) was calculated. The higher the % cell count, the lower the cytotoxicity. It was determined that a compound having the % cell count of 80% or more was non-cytotoxic, and that a compound having the % cell count of less than 80% was cytotoxic.
(3) Quantification of Melanin
The cells after the cell proliferation test were washed with PBS three times, and then lysed by addition of 200 μL of 1M NaOH to measure an absorbance at 475 nm. Using the value thus measured as a relative value of the melanin amount, a ratio of the melanin amount (%) of the test substance-added group to the test substance-absent group (group in which only the solvent was added) was calculated. The lower the ratio of the melanin amount, the higher the melanin production-inhibitory effect. […] The inhibitory effect on melanin production was evaluated according to the following criteria.
⊚: the minimum concentration for inhibition of melanin production was 1 ppm or less.
◯: the minimum concentration for inhibition of melanin production was more than 1 ppm and 10 ppm or less.

Cc1ccccc1Nc1nc(-c2ccncc2)cs1 [Compound 1]
minimal effective concentration (Table 1, 3 days): ≤ 1 µg/mL

Cc1ccccc1Nc1nc(-c2ccccn2)cs1 [Compound 2, 4-(pyridin-2-yl)-N-o-toluylthiazol-2-amine]
minimal effective concentration (Table 1, 3 days): ≤ 1 µg/mL

CCc1ccccc1Nc1nc(-c2ccccn2)cs1 [Compound 3]
minimal effective concentration (Table 1, 3 days): ≤ 1 µg/mL

c1ccc(Nc2nc(-c3ccccn3)cs2)cc1 [Compound 4]
minimal effective concentration (Table 1, 3 days): ≤ 1 µg/mL

Cc1ccc(Nc2nc(C(C)(C)C)cs2)c(C)c1 [Compound 5]
minimal effective concentration (Table 1, 3 days): ≤ 1 µg/mL

CC(=O)c1sc(Nc2ccccc2C)nc1C [Compound 6]
Inhibitory effect on melanin production (Table 1, 3 days): ∘

COc1ccc(-c2nc(Nc3c(C)cccc3C)sc2C)cc1 [Compound 7]
minimal effective concentration (Table 1, 3 days): ≤ 1 µg/mL

Cc1cccc(C)c1Nc1nc(-c2ccccc2)cs1 [Compound 8]
Inhibitory effect on melanin production (Table 1, 3 days): ⊚ (the minimum concentration for inhibition of melanin production was 1 ppm or less.)

CCc1ccccc1Nc1nc(-c2ccc(O)c(O)c2)cs1 [Compound 9]
minimal effective concentration (Table 1, 3 days): ≤ 1 µg/mL

CCc1ccccc1Nc1nc(-c2ccc(O)cc2O)cs1 [Compound 10]
minimal effective concentration (Table 1, 3 days): ≤ 1 µg/mL

CCC1CSC(Nc2ccccc2)=N1 (centres unmarked) [Compound 19]
Inhibitory effect on melanin production (Table 3, 3 days): ⊚ (the minimum concentration for inhibition of melanin production was 1 ppm or less.)

c1ccc(NC2=NCCS2)cc1 [Compound 20]
Inhibitory effect on melanin production (Table 3, 3 days): ∘

CC1CN=C(Nc2ccccc2)S1 (centres unmarked) [Compound 21]
Inhibitory effect on melanin production (Table 3, 3 days): ⊚ (the minimum concentration for inhibition of melanin production was 1 ppm or less.)

Cc1ccccc1NC1=NCCS1 [Compound 22]
Inhibitory effect on melanin production (Table 3, 3 days): ⊚ (the minimum concentration for inhibition of melanin production was 1 ppm or less.)

COc1ccccc1NC1=NCCS1 [Compound 23]
Inhibitory effect on melanin production (Table 3, 3 days): ⊚ (the minimum concentration for inhibition of melanin production was 1 ppm or less.)

COc1ccc(NC2=NC(C)(C)CS2)cc1 [Compound 24]
Inhibitory effect on melanin production (Table 3, 3 days): ∘

COc1cccc(NC2=NC(C)(C)CS2)c1 [Compound 25]
Inhibitory effect on melanin production (Table 3, 3 days): ∘

COc1ccccc1NC1=NC(C)(C)CS1 [Compound 26]
Inhibitory effect on melanin production (Table 3, 3 days): ∘

Cc1ccc(NC2=NC(C)CS2)c(C)c1 (centres unmarked) [Compound 27]
Inhibitory effect on melanin production (Table 3, 3 days): ∘

Cc1ccccc1NC1=NCC(C)(C)S1 [Compound 28]
Inhibitory effect on melanin production (Table 3, 3 days): ⊚ (the minimum concentration for inhibition of melanin production was 1 ppm or less.)

OCC1(CO)CSC(Nc2ccccc2)=N1 [Compound 29]
Inhibitory effect on melanin production (Table 3, 3 days): ∘

Cc1cc(C)c(NC2=NC(CO)(CO)CS2)c(C)c1 [Compound 30]
Inhibitory effect on melanin production (Table 3, 3 days): ∘

C=CCN(C1=NC(C)(C)C(=C)S1)c1ccc(C)cc1C [Compound 31]
minimal effective concentration (Table 3, 3 days): ≤ 1 µg/mL

C=C1SC(Nc2ccc(C)cc2C)=NC1(C)C [Compound 32]
minimal effective concentration (Table 3, 3 days): ≤ 1 µg/mL

Cc1nc(NC(C)(C)C)sc1-c1ccccc1 [Compound 33]
Inhibitory effect on melanin production (Table 4, 3 days): ⊚ (the minimum concentration for inhibition of melanin production was 1 ppm or less.)

Cc1ccc(C(=O)Nc2nc(C)cs2)cc1 [Compound 34]
Inhibitory effect on melanin production (Table 4, 3 days): ∘

O=C(Nc1nc2c(s1)CCCC2)c1ccccc1 [Compound 35]
Inhibitory effect on melanin production (Table 4, 3 days): ⊚ (the minimum concentration for inhibition of melanin production was 1 ppm or less.)

O=C(Nc1nccs1)C1(c2ccccc2)CCCC1 [Compound 36]
minimal effective concentration (Table 4, 3 days): ≤ 1 µg/mL

Cc1ccc2oc(Nc3nc(C)cc(O)n3)nc2c1 [Compound 37]
Inhibitory effect on melanin production (Table 4, 3 days): ∘

CC1(C)CN=C(Nc2cccnc2)S1 [Compound 38]
Inhibitory effect on melanin production (Table 5, 3 days): ∘

CC1(C)CN=C(NC2CCCCC2)S1 [Compound 39]
Inhibitory effect on melanin production (Table 5, 3 days): ∘

CC1(C)CN=C(NCc2ccccc2)S1 [Compound 40]
Inhibitory effect on melanin production (Table 5, 3 days): ∘
